Data from PubChem BioAssay (NCI).
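Each compound was tested at five concentrations against cells in 96-well plates for 48 hours. At the GI50, growth is halved. At the TGI there is no net growth.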

Experiments:
Experiment in all cases: NCI-60 cell line screen, 48 h
ACHN renal = tested on: ACHN renal
CAKI-1 renal = tested on: CAKI-1 renal
DU-145 prostate = tested on: DU-145 prostate
HL-60(TB) leukemia = tested on: HL-60(TB) leukemia
HS 578T breast = tested on: HS 578T breast
LOX IMVI melanoma = tested on: LOX IMVI melanoma
MCF7 breast = tested on: MCF7 breast
SK-MEL-28 melanoma = tested on: SK-MEL-28 melanoma
SK-OV-3 ovarian = tested on: SK-OV-3 ovarian
UACC-62 melanoma = tested on: UACC-62 melanoma

SMILES	GI50 (ACHN renal) [µM]	TGI (ACHN renal) [µM]	GI50 (CAKI-1 renal) [µM]	TGI (CAKI-1 renal) [µM]	GI50 (DU-145 prostate) [µM]	TGI (DU-145 prostate) [µM]	GI50 (HL-60(TB) leukemia) [µM]	TGI (HL-60(TB) leukemia) [µM]	GI50 (HS 578T breast) [µM]	TGI (HS 578T breast) [µM]	GI50 (LOX IMVI melanoma) [µM]	TGI (LOX IMVI melanoma) [µM]	GI50 (MCF7 breast) [µM]	TGI (MCF7 breast) [µM]	GI50 (SK-MEL-28 melanoma) [µM]	TGI (SK-MEL-28 melanoma) [µM]	GI50 (SK-OV-3 ovarian) [µM]	TGI (SK-OV-3 ovarian) [µM]	GI50 (UACC-62 melanoma) [µM]	TGI (UACC-62 melanoma) [µM]
O=S(=O)(NCCNc1cc(-c2cn(-c3ccccc3)nc2-c2cccc(O)c2)ccn1)c1ccc(Br)cc1	3.33	15.2	3.42	20.4	3.02	11.6	2.19	5.76	2.35	7.71	1.71	3.23	2.33	6.91	2.09	4.78	3.59	14.5	1.81	3.87
Clc1nc(-c2ccccc2)nc(Cl)c1Cl		9.33		8.62		29.9		33		47.3		5.6		24.5		31.6		27		27.8
CC(=Nc1ccccc1)C1=C(O)C(Cc2ccc(F)cc2)NC1=O (stereo unspecified)	8.24	> 100	2.9	> 100	2.12	> 100	0.287	> 100	2.44	> 100	0.619	> 100	0.412	> 100	2.63	> 100	1.23	9.01	0.664	> 100
CCCC(=O)Nc1c(I)cc(I)c(CC(CC)C(=O)O)c1I (stereo unspecified)	> 100	> 100	> 100	> 100	> 100	> 100	> 100	> 100	> 100	> 100	> 100	> 100	> 100	> 100	> 100	> 100	> 100	> 100	> 100	> 100
CCCCCC(=C/c1ccccc1)/C=N/N=C(N)N	1.69	3.28	5.16	21.2	1.57	2.94	0.451	1.96	1.8	4.18	1.44	3.02	1.34	2.74	1.65	3.06	2.95	10.8		
CC(C)=CCc1c(O)c(C(=O)CC(C)C)c(O)c2c(-c3ccccc3)cc(=O)oc12	5.85	> 50	11	48.3	15.5	> 50	7.82	27.7	9.75	49.9	15.6	> 50	11.8	> 50	2.94	> 50	10.3	35.1	2.2	13.5
CCCCCCC/C=C1\CCC(CN(C)C)C1=O (stereo unspecified)		31.6		31.6		27.8		9.09		> 100		15		16.4		31		43		28.7
CCCc1n(Cc2ccc3ccccc3n2)cc[n+]1Cc1ccc2ccccc2c1	4.08	15.6			1.52	12.8	0.312	0.933	2.13	9.42	1.07	2.95	0.647	4.7	1.24	6.23	1.26	4.02	0.574	2.39
C[C@@H]1OC(=O)NN=C1c1ccc(-c2ccc(F)cc2)c(C(F)(F)F)c1	11.2	23.2	4.88	18.7	1.57	20.7	7.93	> 100		3.37	4.78	18.8	10.1	25	10.5	22.6	12.6	27.5		
O=C(Nc1ccc(N2CCNCC2)cn1)c1[nH]ncc1Nc1ncnc2sccc12	2.17	5.33	3.89	> 100	3.57	12.2	2.99	22.6	2.86	14.2			1.71	4.17	1.95	3.83	10.6	25.7	2.6	7.33
